From a melting point compilation (Tetko et al.; mined from patent text by program, amines drawn as free bases though some values may be those of a salt)

Row | Structure (SMILES) | melting point
1 | CN(Cc1ncc(C(F)(F)F)cc1Cl)C(=O)c1c(Cl)cccc1Cl | 83 to 84 °C
2 | COC(=O)C1=C(C)NC(CC(=O)N2CCN(C3CC4CC(=O)CC4C3)CC2)=C(C(=O)OC)C1c1c(Cl)cccc1Cl (stereo not given) | 145 to 155 °C
3 | CC(C)=CCN1[C@H](C)Cn2c(=S)[nH]c3cccc(c32)[C@@H]1C (relative stereo) | 138 °C
4 | CCCCCCCCCC1SC(c2cccnc2)NC1=O (stereo not given) | 90 to 95 °C
5 | Clc1ccc(N2CCN(CCc3ccccc3)CC2)nn1 | 140 °C
6 | COc1ccc2c(c1)C(=O)NCC2 | 90 to 93 °C
7 | O=C(O)c1cc(OCCCOc2ccccc2-c2ccccc2)cc(OCCCOc2ccccc2-c2ccccc2)c1 | 110 to 113 °C
8 | O=C(CCc1ccccc1)CS(=O)(=O)C(c1ccc(Cl)cc1)c1ccc(Cl)cc1 | 106 to 107 °C
9 | C[C@]1(CN2CCCc3ccccc32)Cn2cc([N+](=O)[O-])nc2O1 | 168 to 172 °C
10 | COc1cc(C)c(C(=O)c2c(Cl)cccc2Cl)cc1Br | 159 °C
11 | O=[N+]([O-])c1ccc(S(=O)C2CC2)cc1 (racemic) | 104 to 106 °C
12 | Brc1ccc2oc3ccc(Br)cc3c2c1 | 226 °C
13 | COC(=O)CC/C(C)=C/Cc1c(OC)c(C)c2c(c1OS(=O)(=O)C(F)(F)F)C(=O)OC2 | 53 to 55 °C
14 | Cc1csc(C(=O)OC(C)C)c1S(N)(=O)=O | 76 °C
15 | C=CC(=O)N(C1CC(C)(C)NC(C)(C)C1)C1CC(C)(C)NC(C)(C)C1 | 115 to 118 °C
16 | CCCC1CCc2c3c(c(F)c(F)c2O1)OC(C)C3 (stereo not given) | 87 °C
17 | CO[C@]1(c2cc(F)cc(S(=O)(=O)c3ccc(/C(C)=N/O)cc3)c2)CCO[C@@H](C)C1 | 149 °C
18 | O=C1/C(=C/c2ccccc2)N2CCC1CC2 | 130 to 132 °C
19 | CC(Cl)c1nnc2n1-c1ccc(Cl)cc1C(c1ccccc1)=NC2 (stereo not given) | 154 to 156 °C
20 | CS(=O)(=O)N1Cc2cccc(-c3ccc4cnc(Nc5ccc(C6CN(CC(N)=O)C6)cc5)nn34)c2C1 | 216 to 218 °C
21 | CN(C)CCNCCn1nc2c3c(c(NCCNCCO)ccc31)C(=O)c1c(O)ccc(O)c1-2 | 148 to 153 °C
22 | C[C@@H]1Cc2ccsc2[C@H](C)N1CCNC(=O)c1ccc(F)cc1 (relative stereo) | 110 to 114 °C
23 | O=C(O)CCCCC(=O)NCc1ccc2c(c1)C(=O)N(C1CCC(=O)NC1=O)C2=O (stereo not given) | 144 to 146 °C

Row | Structure (SMILES) | melting point
24 | CCn1c(=O)[nH]c2ncn(CC)c2c1=O | 204 to 205 °C
25 | Cc1nccc2c3ccc(OCc4ccc(F)cc4)cc3n(Cc3ccc(F)cc3)c12 | 175 °C
26 | COc1cc2c(c(OC)c1OC)CN(CCc1ccc([N+](=O)[O-])cc1)CC2 | 110 °C
27 | CS(=O)(=O)c1ccc(C2=C(c3ccc(C#N)cc3)CCC2)cc1 | 163 to 164 °C
28 | CCOC(=O)c1cn(-c2nccnn2)cn1 | 193 to 194 °C
29 | O=C1c2cc(Cl)c(Cl)cc2CN2C(=NO)CCC12 (stereo not given) | 245 to 246 °C
30 | Cn1cc(C(=O)CCl)cc1C(=O)c1ccc([N+](=O)[O-])cc1 | 173 to 176 °C
31 | CN(C)S(=O)(=O)c1cccc(Cl)n1 | 53 to 55 °C
32 | NNC(=O)Nc1ccc(O)cc1 | 184 to 186 °C
33 | CCCc1c(C(=O)CC(C)OC)c2ccc(C(N)=O)cc2n1Cc1ccccc1Cl (stereo not given) | 155 to 157 °C
34 | CN1CCN(c2ccc(-c3nc4c(N[C@H]5[C@@H](C(N)=O)[C@@H]6C=C[C@H]5C6)ccnc4[nH]3)cc2)CC1 | 220 to 222 °C
35 | O=C1Nc2ncccc2CN1C1CCN(Cc2ccccc2)CC1 | 187 °C
36 | C=CCC(O)(Cn1cncn1)C1(Cl)CC1 (stereo not given) | 75 to 76 °C
37 | CC1(C)Oc2ccccc2C(c2ccc[nH]c2=O)C1O (stereo not given) | 244 to 246 °C
38 | O=C(NCP(=O)(O)c1ccccc1)c1ccccc1 | 158 to 160 °C
39 | C=C1CCC2C3CC(=O)C4=CC(=O)CCC4(C)C3CCC12C (stereo not given) | 113 to 115 °C
40 | CNC(=O)C1CN(CC(=O)Nc2c(Cl)cc(Cl)cc2Cl)CCN1 (stereo not given) | 169 °C
41 | CC(C)C(O)c1cc2ccncc2[nH]1 (stereo not given) | 140 to 144 °C
42 | COc1ccc2c(c1)CCN(CCc1ccc(NC=O)cc1)C2C (stereo not given) | 93 to 96 °C
43 | Cc1sc(N)c(C#N)c1Cl | 158 °C
44 | CCOc1ccc2c(c1)c(C[C@H](C)N)c1n2CCC1 | 101 to 102 °C
45 | OCc1c(F)ccc(-c2ccc3nc(-c4ccc(Cl)cc4)cn3c2)c1F | 214 to 216 °C
46 | CS(=O)(=O)Nc1ccc(CCC(=O)O)cc1 | 152 to 154 °C

The remaining lines, values ahead:

Row | melting point | Structure (SMILES)
47 | 169 °C | CCOC(=O)C1=C(C)NC(N)=C(C(=O)OCC)C1c1cccc([N+](=O)[O-])c1 (stereo not given)
48 | 211 to 212 °C | CCOC(=O)c1cn(-c2ccc(F)cc2F)c2c(Cl)c(F)c(F)cc2c1=O
49 | 45 to 47 °C | Cc1ccc(Oc2ccc(OC(=O)NC(C)CCCC(C)C)cc2)cc1 (stereo not given)
50 | 232 to 234 °C | COc1ccc(C2Sc3c(ccc4ccccc34)NC(=O)C2O)cc1 (stereo not given)
51 | 249 °C | Nc1nc2c(s1)CCc1nc3ccccn3c1-2
52 | 189 to 190 °C | COc1ccc(CNn2c(=O)ccc3cnc(SC)nc32)cc1Cl
53 | 295 °C | NC(=O)c1cccc(-c2nc(=O)c3ccccc3s2)n1
54 | 121 to 123 °C | CO/N=C(/C(N)=O)c1ccccc1COC(C)=O
55 | 164 °C | Cc1cc(SCc2ccc(OCc3ccc(Cl)cc3)cc2)ccc1OCC(=O)O
56 | 102 to 103 °C | COc1cc(C(C)C)ccc1C1COc2c(C)c(C)cc(C)c21 (stereo not given)
57 | 112 to 114 °C | COC(=O)[C@H](CC(C)C)NC(=O)[C@H](NC(=O)OCc1ccccc1)C(C)C
58 | 137 to 140 °C | CCOCc1nc2c(N)nc3ccccc3c2n1NCC(C)C
59 | 120 to 121 °C | COc1ccc(-c2nc3cc(OC)cc(-c4ccco4)c3o2)cc1
60 | 155 to 157 °C | c1ccc(CCN2CCC(c3cc(-c4ccccn4)[nH]n3)CC2)cc1
61 | 116 to 117 °C | c1ccc(-n2c(Cn3ccnc3)nc3ccccc32)cc1
62 | 131 to 132 °C | O=C1NC(=O)N(CCCc2ccccc2)C1O (stereo not given)
63 | 188 to 190 °C | CC(=O)Nc1nc(CCc2ccc(CC(=O)NC(=N)N)s2)cs1
64 | 160 °C | CC(C)c1ccc(S(=O)(=O)Nc2cnc(Cl)cc2I)cc1
65 | 110 to 111 °C | Cc1oc(-c2ccccc2)nc1COc1ccc(COc2ncccc2CC#N)cn1
66 | 146 to 147 °C | CCOC(=O)C(CC(=O)c1ccccc1C)(NC(C)=O)C(=O)OCC
67 | 120 to 122 °C | COC(=O)C1(CC#N)C(=O)N(C)C(=O)c2ccccc21 (stereo not given)
68 | > 205 °C | Oc1ccc(-c2nn(-c3ccccc3F)c3cc(O)ccc23)c(O)c1
69 | 143 to 145 °C | O=C(O)C(Cc1occ2ccccc12)NC(=O)C(CS)C(F)(F)F (stereo not given)
70 | 49 to 50 °C | Nc1cccc2ccc(OCC3CC3)cc12
71 | 135 to 136 °C | CCOC(=O)c1c(C)ncn1-c1ccc(Cl)c(Cl)c1
72 | 300 °C | CC1=CC2=C(N3CN(O)C=C3N=N2)N(c2ccccc2Cl)C1
73 | 80.9 °C | CCOC(=O)c1cncn1C1CC(C)(C)Oc2ccccc21 (stereo not given)
74 | 83 to 85 °C | CC(C)[C@@H](CO)NS(=O)(=O)c1ccc(Cl)cc1
75 | 95 to 100 °C | COc1ccc(C=CCN2CCc3nc(N)sc3CC2)c(OC)c1
